The test system of assay [1] is LKB1/AMPK and AKT signaling pathways in human hepatoma HepG2 cells. Kind of assay: Zinc activation of LKB1/AMPK and AKT signaling in HepG2 cells (immunoblot). The note with it: acute, FIG. 12A. Format: cell-based. Here is the method: (§1) FIGS. 12A-12B. […] 1° Hu Hepatocytes* (5-donor pool): HM CPP5, Thermofisher.
(§2) Liver protein was extracted using RIPA buffer (Cell signaling technology, Cat #9806) with Halt Protease & Phosphatase Inhibitor Cocktail (ThermoFisher Scientific, Cat #78440). Five microgram protein of each sample were separated in NuPAGE 4-12% Bis-Tris protein gel (Invitrogen, Cat # WG1403BOX), and transferred to nitrocellulose membrane using Trans-Blot® Turbo™ Transfer System (BioRad). Blotting was performed using the following Cell Signaling Technology antibodies: Phospho-AMPKa (Thr172) (Cell signaling technology, Cat #2535), AMPKa (Cell signaling technology, Cat #5831), 13-Actin (Sigma, Cat #5441), Phospho-AKT (Ser473) (Cell signaling technology, Cat #4060), AKT (Cell signaling technology, Cat #9272), Phospho-LKB1 (Ser428) (Cell signaling technology, Cat #3482), LKB1 (Cell signaling technology, Cat #3050), rabbit IgG conjugated to horseradish peroxidase (HRP) (Cell signaling technology, Cat #7074) and mouse IgG conjugated to HRP (Cell signaling technology, Cat #7076). Blots were developed using SuperSignal West Femto Substrate (ThermoFisher Scientific, Cat #34095). Signals were captured using ImageQuant LAS4000 (GE Healthcare).

Assay [2] has as its system LKB1/AMPK and AKT signaling pathways in human primary hepatocytes. The assay is described as follows: Zinc activation of LKB1/AMPK and AKT signaling in human primary hepatocytes (immunoblot). Format: cell-based. The note with it: human primary hepatocytes (5-donor pool, HM CPP5, Thermofisher); acute; FIG. 12B. Here is the method:
as §1, §2
(Immunoblotting shows a protein as a band on a membrane.)

With `[Zn]` [Zinc], the “activation of LKB1/AMPK and AKT signaling pathways” value in assay [1] was “activates LKB1/AMPK and AKT signaling pathways in dose dependent manner”; in assay [2] it was “activates LKB1/AMPK and AKT signaling pathways in dose dependent manner”.

The values are drawn from patent US20200288683A1, “LOSS OF FUNCTION RODENT MODEL OF SOLUTE CARRIER 39 MEMBER 5” (Regeneron Pharmaceuticals, Inc., priority 2019, published 2020).
